Assay results as given in ChEMBL document CHEMBL1909046, “DrugMatrix in vitro pharmacology data”.

Columns and labels:
[1] = target: T1, Cholecystokinin receptor type A (Homo sapiens, UniProt P32238); assay type: cell membranes, Membrane; settings: 1321-n1; note: in other assays of this panel Not Active means under 50% inhibition at 10 µM
T1 sequence (P32238 whole entry): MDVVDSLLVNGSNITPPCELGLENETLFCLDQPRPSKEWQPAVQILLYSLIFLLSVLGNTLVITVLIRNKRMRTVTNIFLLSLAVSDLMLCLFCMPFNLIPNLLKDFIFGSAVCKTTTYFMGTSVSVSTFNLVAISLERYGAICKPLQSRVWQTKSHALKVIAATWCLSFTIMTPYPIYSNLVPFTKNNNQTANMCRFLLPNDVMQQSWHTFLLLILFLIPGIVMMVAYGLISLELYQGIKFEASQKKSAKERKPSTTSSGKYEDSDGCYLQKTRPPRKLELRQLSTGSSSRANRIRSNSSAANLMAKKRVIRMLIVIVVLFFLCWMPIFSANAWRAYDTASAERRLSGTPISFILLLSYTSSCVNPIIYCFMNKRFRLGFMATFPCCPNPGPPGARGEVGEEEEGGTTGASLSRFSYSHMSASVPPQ

[2] = target: 5-hydroxytryptamine receptor 2B (Homo sapiens, UniProt P41595); assay type: cell membranes, CHO-K1, Membrane; settings: cho-k1; note: in other assays of this panel Not Active means under 50% inhibition at 10 µM
[3] = target: T2, Alpha-1A adrenergic receptor (Rattus norvegicus, UniProt P43140); assay: DRUGMATRIX: Alpha-1A adrenergic receptor radioligand binding (ligand: prazosin); assay type: cell membranes, Wistar, Submaxillary gland, Membrane; settings: Not Active = under 50% inhibition at 10 µM
T2 sequence (P43140 whole entry): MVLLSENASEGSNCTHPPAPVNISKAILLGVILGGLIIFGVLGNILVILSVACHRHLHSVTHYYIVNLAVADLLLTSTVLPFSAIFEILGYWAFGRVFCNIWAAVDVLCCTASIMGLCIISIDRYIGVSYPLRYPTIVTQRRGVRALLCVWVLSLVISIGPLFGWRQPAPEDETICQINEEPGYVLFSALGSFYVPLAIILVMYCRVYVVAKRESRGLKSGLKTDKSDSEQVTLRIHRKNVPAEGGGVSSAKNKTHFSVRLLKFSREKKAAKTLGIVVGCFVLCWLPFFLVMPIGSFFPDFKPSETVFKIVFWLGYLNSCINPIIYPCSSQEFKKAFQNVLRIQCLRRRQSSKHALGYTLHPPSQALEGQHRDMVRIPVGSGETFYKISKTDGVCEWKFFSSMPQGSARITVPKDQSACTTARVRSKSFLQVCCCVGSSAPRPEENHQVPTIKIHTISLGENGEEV

[4] = target: Histamine H2 receptor (Homo sapiens, UniProt P25021); assay type: cell membranes, CHO-K1, Membrane; settings: cho-k1; note: in other assays of this panel Not Active means under 50% inhibition at 10 µM
[5] = target: 5-hydroxytryptamine receptor 6 (Homo sapiens, UniProt P50406); assay type: cell membranes, HeLa, Membrane; settings: hela; note: in other assays of this panel Not Active means under 50% inhibition at 10 µM
[6] = target: T3, Alpha-2A adrenergic receptor (Homo sapiens, UniProt P08913); assay type: cell membranes, Sf9, Membrane; settings: sf9; note: in other assays of this panel Not Active means under 50% inhibition at 10 µM
T3 sequence (P08913 whole entry): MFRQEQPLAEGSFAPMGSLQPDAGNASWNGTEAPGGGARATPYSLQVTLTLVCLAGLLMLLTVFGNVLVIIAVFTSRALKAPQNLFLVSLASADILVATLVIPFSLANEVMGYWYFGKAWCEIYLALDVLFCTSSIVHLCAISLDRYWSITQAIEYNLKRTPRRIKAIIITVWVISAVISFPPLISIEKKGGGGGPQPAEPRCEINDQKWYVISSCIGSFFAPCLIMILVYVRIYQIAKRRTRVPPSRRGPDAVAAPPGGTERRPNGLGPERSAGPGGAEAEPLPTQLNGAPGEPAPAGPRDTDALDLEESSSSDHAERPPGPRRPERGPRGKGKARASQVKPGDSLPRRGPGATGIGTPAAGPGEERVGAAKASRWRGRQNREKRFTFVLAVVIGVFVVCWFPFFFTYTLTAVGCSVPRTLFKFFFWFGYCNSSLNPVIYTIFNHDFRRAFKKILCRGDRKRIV

Measured: IC50

Sequence of 5-hydroxytryptamine receptor 6 (P50406 whole entry): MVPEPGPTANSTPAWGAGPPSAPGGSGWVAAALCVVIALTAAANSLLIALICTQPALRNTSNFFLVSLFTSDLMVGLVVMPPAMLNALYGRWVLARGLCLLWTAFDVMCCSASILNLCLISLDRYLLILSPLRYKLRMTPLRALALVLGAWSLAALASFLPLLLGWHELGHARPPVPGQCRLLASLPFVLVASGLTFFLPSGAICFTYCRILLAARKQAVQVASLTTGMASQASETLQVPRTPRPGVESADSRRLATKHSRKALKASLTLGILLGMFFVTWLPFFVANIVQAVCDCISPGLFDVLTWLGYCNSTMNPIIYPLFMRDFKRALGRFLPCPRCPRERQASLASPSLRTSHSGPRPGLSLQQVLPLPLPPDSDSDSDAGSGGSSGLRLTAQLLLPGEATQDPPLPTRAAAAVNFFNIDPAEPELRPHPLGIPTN
Sequence of 5-hydroxytryptamine receptor 2B (P41595 whole entry): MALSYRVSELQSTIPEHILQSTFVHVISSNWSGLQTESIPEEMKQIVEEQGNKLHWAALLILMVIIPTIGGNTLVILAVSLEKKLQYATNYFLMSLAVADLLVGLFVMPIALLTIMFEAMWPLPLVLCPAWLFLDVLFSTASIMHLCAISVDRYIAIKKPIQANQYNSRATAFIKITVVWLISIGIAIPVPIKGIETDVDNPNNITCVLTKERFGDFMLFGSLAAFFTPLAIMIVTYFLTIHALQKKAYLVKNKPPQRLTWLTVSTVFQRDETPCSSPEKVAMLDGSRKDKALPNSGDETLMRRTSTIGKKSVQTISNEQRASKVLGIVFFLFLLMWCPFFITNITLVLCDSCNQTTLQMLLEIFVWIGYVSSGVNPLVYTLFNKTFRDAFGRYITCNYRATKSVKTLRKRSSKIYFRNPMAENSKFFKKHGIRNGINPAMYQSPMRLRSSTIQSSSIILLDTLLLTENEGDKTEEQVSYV
Sequence of Histamine H2 receptor (P25021 whole entry): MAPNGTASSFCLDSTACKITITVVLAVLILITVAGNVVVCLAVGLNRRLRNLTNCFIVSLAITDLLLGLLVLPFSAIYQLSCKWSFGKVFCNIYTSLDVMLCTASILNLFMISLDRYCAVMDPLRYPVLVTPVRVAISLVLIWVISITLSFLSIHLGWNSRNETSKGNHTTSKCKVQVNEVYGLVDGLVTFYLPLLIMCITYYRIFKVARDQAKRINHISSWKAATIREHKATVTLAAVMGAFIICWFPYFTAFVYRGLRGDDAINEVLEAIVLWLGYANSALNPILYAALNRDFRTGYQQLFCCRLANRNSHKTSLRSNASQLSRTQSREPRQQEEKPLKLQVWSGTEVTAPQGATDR

COc1ccc(Cc2nccc3cc(OC)c(OC)cc23)cc1OC [PAPAVERINE]
Not Active: all assays above

O=c1cc(-c2ccccc2)oc2ccc3ccccc3c12 [BETA-NAPHTHOFLAVONE]
Not Active: all assays above

CC(=O)O[C@]1(C(C)=O)CC[C@H]2[C@@H]3C=C(Cl)C4=CC(=O)[C@@H]5C[C@@H]5[C@]4(C)[C@H]3CC[C@@]21C [CYPROTERONE ACETATE]
Not Active: all assays above

CCN[C@@H](C)Cc1cccc(C(F)(F)F)c1 [DEXFENFLURAMINE]
Not Active: all assays above

Nn1nnc2ccccc21
Not Active: all assays above

O=C(O)Cc1ccc(-c2ccccc2)cc1 [FELBINAC]
Not Active: all assays above
